According to PubChem BioAssay (NCI):
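Results reflect a 48-hour exposure of cells in 96-well plates to compound at five concentrations. TGI denotes the concentration required for complete inhibition of growth.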

What was measured:
Experiment in all cases: NCI-60 cell line screen, 48 h
CCRF-CEM leukemia = system: CCRF-CEM leukemia
NCI/ADR-RES ovarian = system: NCI/ADR-RES ovarian
UO-31 renal = system: UO-31 renal
SN12C renal = system: SN12C renal
A549 NSCLC = system: A549 NSCLC
ACHN renal = system: ACHN renal
MCF7 breast = system: MCF7 breast
LOX IMVI melanoma = system: LOX IMVI melanoma
SF-539 CNS = system: SF-539 CNS
HL-60(TB) leukemia = system: HL-60(TB) leukemia

Row | SMILES | TGI (CCRF-CEM leukemia) [µM] | TGI (NCI/ADR-RES ovarian) [µM] | TGI (UO-31 renal) [µM] | TGI (SN12C renal) [µM] | TGI (A549 NSCLC) [µM] | TGI (ACHN renal) [µM] | TGI (MCF7 breast) [µM] | TGI (LOX IMVI melanoma) [µM] | TGI (SF-539 CNS) [µM] | TGI (HL-60(TB) leukemia) [µM]
1 | CCCCCCNC(=O)CCC(NC(=O)c1ccc(N(C)Cc2cnc3nc(N)nc(N)c3n2)cc1)C(=O)NCCCCCC (stereo unspecified) | > 100 | > 100 | > 100 | > 100 | > 100 | > 100 | 34.1 | > 100 |  | 
2 | CSCCCS/C1=C/CCCCCCCCCC1 |  | > 100 | > 100 | > 100 | > 100 | > 100 | > 100 | > 100 | > 100 | > 100
3 | CCOC(=O)c1nc2ccccc2nc1Oc1ccc(C(=O)OC)cc1 | > 100 | > 100 | > 100 | > 100 | > 100 | > 100 | > 100 | > 100 | > 100 | 
4 | COC(=O)CCc1ccc2c(c1)C(=O)CC2 | > 100 | > 100 | > 100 |  | > 100 | > 100 | > 100 | > 100 | > 100 | > 100
5 | O=[N+]([O-])c1ccc(C(Nc2ccccc2)P(c2ccccc2)c2ccccc2)cc1 (stereo unspecified) |  | > 100 | > 100 | > 100 | > 100 | > 100 | > 100 | > 100 | > 100 | > 100
6 | O=C(NC1CCCCC1)c1cc2ccccc2cc1O | > 100 | 54.7 | 99 |  |  |  | > 100 | > 100 | 57.2 | 96.1
7 | O=[N+]([O-])c1ccccc1S(=O)(=O)c1ccccc1 | > 100 |  | 90.6 | > 100 | > 100 | > 100 |  | > 100 | > 100 | > 100
8 | Brc1ccc2c3c1[C@H]1O[C@H]1c1cccc(c1-3)[C@@H]1O[C@H]21 |  | 76.8 | 32.1 | 33.3 | 49.4 | 31.9 | 73.1 | 9.39 |  | 
9 | O=c1cc(NNc2cccc(F)c2)[nH]c(=O)[nH]1 | 55.9 | > 100 | 95.8 | > 100 | > 100 | > 100 |  | 36.9 | > 100 | 44.6
10 | CC1(C)C(=O)c2ccccc2OC1N1CCN(C2Oc3ccccc3C(=O)C2(C)C)CC1 (stereo unspecified) | > 100 | > 100 | > 100 | > 100 |  | > 100 | > 100 | > 100 |  | > 100
11 | Cc1ccc(-n2cc(-c3ccc(Cl)cc3)c3c(N/N=C4\SCC(=O)N4C)ncnc32)cc1 | > 100 | > 100 | > 100 | > 100 | 26.6 | > 100 |  | > 100 | 33.9 | > 100
12 | CNC(=S)N/N=C(\C(=N/NC(=S)NC)c1ccccn1)c1ccccn1 |  |  | > 69.6 | > 100 | > 100 | > 44.6 | > 100 | > 100 | > 100 | 
13 | Cc1ccc2c(=O)c(C(=O)Nn3c(C)csc3=S)c[nH]c2n1 | > 100 | > 100 | > 100 | > 100 | > 100 | > 100 | > 100 | > 100 |  | > 100
14 | Oc1ccc(Cl)cc1-c1cc(-c2ccccc2)nc(NCN2CCCCC2)n1 |  | > 100 | > 100 | > 100 | > 100 | > 100 | > 100 | > 100 | > 100 | > 100
15 | O=C(O)C[C@@H]1[C@@H](O)[C@@H](O)CN2C(=O)c3ccccc3[C@H]12 |  | > 100 | > 100 | > 100 | > 100 | > 100 | > 100 | > 100 | > 100 | 
16 | COC(OC)C1OCC(n2cc(F)c(=O)[nH]c2=O)C1O (stereo unspecified) | > 100 | > 100 | > 100 | > 100 | > 100 | > 100 | > 100 | > 100 | > 100 | 
17 | O=C(CCCCCC(=O)N1CC(CCl)c2ccc([N+](=O)[O-])cc21)N1CC(CCl)c2ccc([N+](=O)[O-])cc21 (stereo unspecified) | > 100 | > 100 | > 100 | > 100 |  | > 100 | > 100 | > 100 | > 100 | > 100
18 | O=c1[nH]c(=O)n(C2CC(O)C(CO)O2)cc1NN=NCCCc1ccccc1 (stereo unspecified) | > 100 | > 100 |  | > 100 | > 100 | > 100 | > 100 | > 100 | > 100 | > 100
19 | C[n+]1c(-c2ccc(/C=N/Nc3ccnc(N/N=C/c4ccc(-c5cn6ccsc6[n+]5C)cc4)n3)cc2)cn2ccsc21 | 44.2 | > 100 | > 100 | > 100 | 91.2 | 78.6 | > 100 |  | > 100 | 
20 | CN(CCO)CCCC1COc2ccccc2O1 (stereo unspecified) | > 100 | > 100 | > 100 | > 100 | > 100 | > 100 | > 100 |  | > 100 | > 100
21 | CCCCCCCC(CC(=O)NC(CO)C(=O)NC(CO)CC(C)C)OC(=O)CC(CCCCCCC)OC(=O)CC(CCCCCCC)OC1OC(C)C(O)C(OC2OC(C)C(O)C(O)C2OC(C)=O)C1O (stereo unspecified) | 11.8 |  | 30.7 | 16.8 | 25.9 | 28.9 | 23.8 |  | 23.5 | 10.4
22 | C=CCN1C(=O)/C(=C/c2ccco2)N=C1SC1OC(COC(C)=O)C(OC(C)=O)C(OC(C)=O)C1OC(C)=O (stereo unspecified) |  | > 100 |  |  |  | > 100 | > 100 | > 100 | > 100 | 53.4
23 | O=C(CCCCCCCCC(=O)N1C(=O)CC(=O)N(c2ccccc2)C1=S)N1C(=O)CC(=O)N(c2ccccc2)C1=S | > 100 | > 100 | > 100 | > 100 | > 100 | > 100 | > 100 | > 100 |  | 
